Where two headings read alike, the source gives them in different places.
Legend:
[1] = target: T1, Full length wild-type cereblon CRBN (Homo sapiens, UniProt Q96SW2); assay: Fluorescence polarization (FP) assay indicating cereblon binding; settings: CRBN 80.0 nM, fluorescent probe 5 nM, FP measured after 12 hours; read-out: rFP IC50
T1 construct: Full length wild-type cereblon CRBN (80.0 nM, 10 μL) was incubated in assay buffer
From the text: Protocol for Fluorescent Polarization Assay
Compound activity was monitored in a fluorescence polarization (FP) homogeneous assay using 1-[5-({2-[2-(2-{[2-(2,6-dioxopiperidin-3-yl)-1,3-dioxo-2,3-dihydro-1H-isoindol-4-yl]oxy}acetamido)ethoxy]ethyl}carbamoyl)pentyl]-3,3-dimethyl-2-[(1E,3E)-5-[(2E)-1,3,3-trimethyl-5-sulfo-2,3-dihydro-1H-indol-2-ylidene]penta-1,3-dien-1-yl]-3H-indol-1-ium-5-sulfonate as a fluorescent probe. Unless otherwise stated, all reagents were purchased from Sigma Aldrich. Enzymatic reactions were conducted in Perkin-Elmer Black 384 well ProxiPlate Plus (catalogue no. 6008269) in 10 μL total volume. Full length wild-type cereblon CRBN (80.0 nM, 10 μL) was incubated in assay buffer containing 20 mM HEPES (pH 8.0), […], 0.5 mM TCEP and 0.05% Tween 20 in the presence or absence of compound (300 nL). Inhibitors were stored as 10 mM DMSO stocks in an inert environment (low humidity, dark, low oxygen, room temperature) using the Storage Pod System. Compounds and DMSO were dispensed using the Echo E5XX (Labcyte Inc. USA) to give concentrations from 300 to 0.937 or 3000 to 9.3 nM in a 12 data point curve. […] Following incubation at room temperature for […], the assay was initiated by dispensing the probe to a final concentration of 5 nM (2.5 nL of a 20 μM stock) using the Echo E5XX. FP was measured after a period of 12 hours using a Pherastar plate reader (BMG Labtech, Germany) exciting at 590 nm and measuring the amount of parallel and perpendicular light at 675 nm. The FP signal was subsequently normalized to the no-compound control (i.e., DMSO). Analysis and IC50 values were derived using Dotmatics (Dotmatics UK) software.

[2] = system: Human mammary epithelial cells (HMEC) engineered to express c-myc tagged with EGFP; assay: 3D spheroid assay, myc-HMEC (CellTiterGlo3D viability); format: cell-based
Procedure: (§1) 3D Spheroid Experiments—HMEC
(§2) Human mammary epithelial cells (HMEC) were engineered to express either c-myc tagged with EGFP or EGFP alone (non myc) (analogous but distinct from Kessler J D et al, Science. 2012 Jan. 20; 335(6066):348-53. doi: 10.1126/science.1212728; Hsu T Y et al, Nature. 2015 Sep. 17; 525(7569):384-8. doi: 10.1038/nature14985). The engineered cells were seeded at 1000 (myc) or 4000 (non myc) cells/well in a 384 ultra-low attachment plate in a total volume of 40 µL, HMEC cell culture media (DMEM/F12+10% HI-FBS+15 mM HEPES+0.5 ug/ml Hydrocortisone+10 ug/ml Insulin+20 ng/ml EGF). Plates were spun at 1200 rpm for 5 minutes at room temperature to ensure that cells have gathered in the middle of the well and incubated at 37° C. for 48 hrs before firing with compounds. On Day 2 (48 h post seeding) cells were imaged (brightfield and EGFP fluorescence) using the Celigo imaging cytometer prior to firing compounds. For primary screens, compounds were added at three concentrations (1.25, 10 and 30 uM) in a volume of 120 nL using the ECHO acoustic dispenser and spun at 2000 rpm for 2 minutes at room temperature before incubating at 37° C. for 5 days. […] On Day 7, prior to measuring cell viability using CellTiterGlo3D, cells were imaged (brightfield and EGFP fluorescence) on the Celigo imaging cytometer. The CellTiterGlo3D reagent is added at 30uL/well and incubated at room temperature for 30mins After 30mins of incubation, luminescence readings were recorded using the Perkin Elmer EnVision reader.

[3] = system: Human mammary epithelial cells (HMEC) engineered to express EGFP alone (non myc); assay: 3D spheroid assay, non myc-HMEC (CellTiterGlo3D viability); format: cell-based; settings: 120 h, 3D spheroids, 5 days with compound, read-out: Code: EC50 value in the non myc-HMEC assay
Procedure: as §1, §2

GSPT1 = GSPT1 (Homo sapiens, UniProt P15170+Q96SW2); assay: Immunofluorescence assay for GSPT1 degradation in CAL-51 cells; format: cell-based; parameters: CAL-51 cells were purchased from DSMZ (cat. Number ACC302); endogenous in cells; host or cells: CAL-51 (DSMZ ACC302); settings: compound treatment 6 hours, read-out: Code: activity for GSPT1 degradation (DC50)
Chain of GSPT1 (P15170 whole entry): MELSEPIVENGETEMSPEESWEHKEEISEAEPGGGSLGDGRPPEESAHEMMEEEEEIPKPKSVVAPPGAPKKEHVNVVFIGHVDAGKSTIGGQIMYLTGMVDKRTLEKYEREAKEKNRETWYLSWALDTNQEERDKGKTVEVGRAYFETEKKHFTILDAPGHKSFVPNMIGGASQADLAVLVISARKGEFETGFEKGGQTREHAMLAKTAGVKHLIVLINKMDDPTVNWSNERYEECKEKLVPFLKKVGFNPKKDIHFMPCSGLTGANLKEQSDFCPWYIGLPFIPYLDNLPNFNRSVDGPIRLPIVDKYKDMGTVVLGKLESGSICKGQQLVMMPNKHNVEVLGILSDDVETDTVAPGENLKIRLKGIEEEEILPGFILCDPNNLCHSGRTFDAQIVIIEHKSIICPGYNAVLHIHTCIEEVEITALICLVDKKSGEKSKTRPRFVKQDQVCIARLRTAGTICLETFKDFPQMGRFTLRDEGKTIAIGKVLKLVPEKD
Chain of GSPT1 (Q96SW2 whole entry): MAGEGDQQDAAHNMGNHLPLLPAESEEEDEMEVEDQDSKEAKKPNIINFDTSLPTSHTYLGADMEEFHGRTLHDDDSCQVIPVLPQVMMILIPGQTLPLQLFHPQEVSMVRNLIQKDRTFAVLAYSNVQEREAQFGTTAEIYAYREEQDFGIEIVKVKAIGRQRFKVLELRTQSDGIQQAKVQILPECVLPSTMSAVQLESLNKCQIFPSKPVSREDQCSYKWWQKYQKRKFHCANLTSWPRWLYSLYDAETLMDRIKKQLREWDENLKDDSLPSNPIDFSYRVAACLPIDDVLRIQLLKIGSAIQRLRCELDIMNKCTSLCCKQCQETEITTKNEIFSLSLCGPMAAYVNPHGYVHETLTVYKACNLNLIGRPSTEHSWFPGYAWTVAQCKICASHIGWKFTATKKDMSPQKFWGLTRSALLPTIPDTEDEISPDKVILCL
Chain of GSPT1 (Q16531 2-1140 partner limits assumed): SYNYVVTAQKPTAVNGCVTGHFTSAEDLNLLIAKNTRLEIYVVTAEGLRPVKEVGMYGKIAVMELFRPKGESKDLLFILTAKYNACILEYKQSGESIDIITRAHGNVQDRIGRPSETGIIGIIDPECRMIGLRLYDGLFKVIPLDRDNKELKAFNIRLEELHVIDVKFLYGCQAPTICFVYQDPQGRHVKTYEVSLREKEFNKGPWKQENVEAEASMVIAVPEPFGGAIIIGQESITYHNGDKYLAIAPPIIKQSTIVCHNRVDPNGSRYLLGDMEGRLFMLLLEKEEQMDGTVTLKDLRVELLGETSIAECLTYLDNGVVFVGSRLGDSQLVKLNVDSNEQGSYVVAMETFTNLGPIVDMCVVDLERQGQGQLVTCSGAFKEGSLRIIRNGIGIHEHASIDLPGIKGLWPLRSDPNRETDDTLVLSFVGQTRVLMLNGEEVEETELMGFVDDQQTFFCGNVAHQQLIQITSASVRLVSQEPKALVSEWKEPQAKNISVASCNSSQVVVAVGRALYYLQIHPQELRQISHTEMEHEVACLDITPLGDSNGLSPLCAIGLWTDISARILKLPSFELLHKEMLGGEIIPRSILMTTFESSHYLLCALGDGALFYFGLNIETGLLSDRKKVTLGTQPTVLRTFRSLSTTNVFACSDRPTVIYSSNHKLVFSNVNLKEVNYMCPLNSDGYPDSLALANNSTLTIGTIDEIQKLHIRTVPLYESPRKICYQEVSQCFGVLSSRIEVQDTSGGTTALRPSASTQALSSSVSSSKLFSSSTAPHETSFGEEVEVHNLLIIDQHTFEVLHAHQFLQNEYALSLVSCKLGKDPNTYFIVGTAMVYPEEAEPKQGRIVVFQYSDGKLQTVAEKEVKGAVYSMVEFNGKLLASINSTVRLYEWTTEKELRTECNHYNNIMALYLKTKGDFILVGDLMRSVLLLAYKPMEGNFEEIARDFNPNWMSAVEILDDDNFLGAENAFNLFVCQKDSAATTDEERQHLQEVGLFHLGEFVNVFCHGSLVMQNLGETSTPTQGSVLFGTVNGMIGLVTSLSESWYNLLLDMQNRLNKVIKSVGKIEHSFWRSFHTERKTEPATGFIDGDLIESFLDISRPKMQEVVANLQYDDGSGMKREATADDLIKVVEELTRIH
Procedure: CAL-51 cells were purchased from DSMZ (cat. Number ACC302), sub-cultured in 90% Dulbecco's MEM (4.5 g/L glucose, Gibco 11965) +10% heat inactivated FBS (BioConcept, 2-01F136I) and incubated at 37° C., 5% CO2. For the assay, imaging microtiterplate Cell Carrier 96 Ultra (Perkin Elmer 6055302) were pre-coated with Fibronectin (Sigma F085, 300 at 0.2 μg/ml) in PBS (1000, Gibco 14190) for 45 min at room temperature, rinsed with PBS and CAL-51 cells (30K cells/well) were plated and let to adhere overnight. Cells were treated with compounds typically using a serial dilution ranging from 30 μM to 0.1 nM for 6 hours. Compounds were stored at 10 mM DMSO stocks. Vehicle (DMSO), positive (CC-885, 10 μM) and rescue controls (positive control plus 0.2 μM bortezomib) were also included at this stage. Cells were subsequently rinsed with PBS and fixed in 10% Formalin solution (50 μl, Sigma HT5011)) for 20 mins at room temperature. Following three consecutive PBS washes (100 μl), cells were permeabilized in 0.1% Triton X-100 in PBS (Sigma 93443, 50 μl) for 15 mins at room temperature. Following three further PBS washes, 50 μl blocking buffer (1% BSA, Sigma A4503, in PBS) was added for 45 min for signal-to-noise reduction. Primary antibody (human GSPT1, Sigma HPA052488) was diluted in blocking buffer (dil. 1/300, 35 μl/well) and incubated with the cells overnight at 4° C. After three PBS washes, Alexa-fluor 488 coupled secondary antibodies (Invitrogen, A32731, dil. 1/1000), Alexa-fluor 647-Phalloïdin (Invitrogen, A22287, dil. 1/200) and DAPI (Thermo, #62248, dil.1/1000) were diluted in blocking buffer and incubated with the samples for 2 hours at room temperature. After three final PBS washes, samples were conserved in 1000 PBS in the dark, until measurement. Image acquisition was performed on the Operetta High-Content Imager (Perkin-Elmer). Fluorescence intensity of Alexa-Fluor 488 (GSPT1), Alexa-Fluor 647 (Actin) and DAPI (Nucleus) were measured. For the determination of GSPT1 DC50 values, a custom algorithm implemented in the PerkinElmer image analysis software Harmony-Acapella® was developed. After user-defined setting of adjustment parameters, the analysis was run identically without human intervention for all image fields. DAPI staining of the nuclei was used to determine the location of cells using standard nuclei detection modules. Segmentation artifacts were removed by threshold-based filters for area, roundness and intensity. The outline of the cells was determined analogously from the sum of the normalized, smoothed DAPI and Actin channel, starting from each nucleus. The Alexa-Fluor 488 (GSPT1) signal intensity in each cell was finally measured, in order to obtain a Mean intensity per cell. GSPT1 degradation (DC50) was calculated after normalization to controls and data import in CDD vault Database, using non-linear regression. Activity for GSPT1 Degradation Table 3 assigns each compound a code indicating the ability for GSPT1 degradation: A, B or C. According to the code, A represents a DC50 value of ≤100 nM, B represents a DC50 value >100 nM and ≤300 nM and C represents a DC50 value of >300 nM.

[4] = Homo sapiens, HMEC, 120 h, 3D spheroids, 5 days with compound, read-out: Code: EC50 value in the myc-HMEC assay
[5] = myc-HMEC 3D spheroids (compounds with code D and E), 5 days, read-out: EC50

T1 sequence (Q96SW2 whole entry): as the sequence (Q96SW2 whole entry) above

Row | IC50 [1] [nM] | DC50 (GSPT1) [nM] | Compound | EC50 [2, 4] [nM] | EC50 [3] [nM] | EC50 [2, 5] [nM]
1 | 587 | > 300 | O=C1CCC(N2Cc3ccc(CNC(=O)Nc4ccc(F)c(F)c4)cc3C2=O)C(=O)N1 (centres unmarked) [Compound 39] | > 2000 | > 10000 | –
2 | 1590 | > 300 | O=C1CCC(N2Cc3ccc(CNC(=O)NCc4ccccc4)cc3C2=O)C(=O)N1 (centres unmarked) [Compound 24] | > 2000 | > 10000 | –
3 | 1140 | > 300 | O=C1CCC(N2Cc3ccc(CNC(=O)NC4CCCCC4)cc3C2=O)C(=O)N1 (centres unmarked) [Compound 29] | > 2000 | > 10000 | –
4 | 400 | > 300 | O=C1CCC(N2Cc3ccc(CNC(=O)Nc4cccc(Cl)c4)cc3C2=O)C(=O)N1 (centres unmarked) [Compound 3] | > 2000 | > 10000 | –
5 | 763 | > 300 | CC(C)(C)NC(=O)NCc1ccc2c(c1)C(=O)N(C1CCC(=O)NC1=O)C2 (centres unmarked) [Compound 10] | > 2000 | > 10000 | –
6 | 441 | > 300 | Cc1ccc(F)cc1NC(=O)NCc1ccc2c(c1)C(=O)N(C1CCC(=O)NC1=O)C2 (centres unmarked) [Compound 62] | > 2000 | > 10000 | –
7 | 444 | > 300 | O=C1CCC(N2Cc3ccc(CNC(=O)NCCc4ccccc4)cc3C2=O)C(=O)N1 (centres unmarked) [Compound 27] | > 2000 | > 10000 | –
8 | 591 | ≤ 100 | O=C1CCC(N2Cc3ccc(CNC(=O)Nc4cccc(Cl)c4F)cc3C2=O)C(=O)N1 (centres unmarked) [Compound 33] | ≤ 400 | > 10000 | 250
9 | 381 | > 300 | O=C1CCC(N2Cc3ccc(CNC(=O)Nc4cc(F)ccc4F)cc3C2=O)C(=O)N1 (centres unmarked) [Compound 69] | > 2000 | > 10000 | –
10 | 479 | > 300 | O=C1CCC(N2Cc3ccc(CNC(=O)Nc4cccc(Cl)c4Cl)cc3C2=O)C(=O)N1 (centres unmarked) [Compound 50] | > 2000 | > 10000 | –
11 | 322 | > 300 | COCCNC(=O)NCc1ccc2c(c1)C(=O)N(C1CCC(=O)NC1=O)C2 (centres unmarked) [Compound 72] | > 2000 | > 10000 | –
12 | 757 | > 300 | Cc1cccc(NC(=O)NCc2ccc3c(c2)C(=O)N(C2CCC(=O)NC2=O)C3)c1 (centres unmarked) [Compound 43] | > 2000 | > 10000 | –
13 | 570 | ≤ 100 | O=C1CCC(N2Cc3ccc(CNC(=O)Nc4ccc(OC(F)(F)F)cc4)cc3C2=O)C(=O)N1 (centres unmarked) [Compound 77] | – | > 10000 | –
14 | 373 | > 300 | CC(C)c1ccc(NC(=O)NCc2ccc3c(c2)C(=O)N(C2CCC(=O)NC2=O)C3)cc1 (centres unmarked) [Compound 57] | > 2000 | > 10000 | –
15 | 580 | ≤ 100 | COc1ccc(Cl)cc1NC(=O)NCc1ccc2c(c1)C(=O)N(C1CCC(=O)NC1=O)C2 (centres unmarked) [Compound 30] | ≤ 400 | > 10000 | 359
16 | 725 | ≤ 100 | Cc1cc(Cl)c(NC(=O)NCc2ccc3c(c2)C(=O)N(C2CCC(=O)NC2=O)C3)cc1Cl (centres unmarked) [Compound 78] | – | > 10000 | –
17 | 814 | > 300 | O=C1CCC(N2Cc3ccc(CNC(=O)NC4CCCC4)cc3C2=O)C(=O)N1 (centres unmarked) [Compound 28] | > 2000 | > 10000 | –
18 | 497 | > 300 | C[C@H](NC(=O)NCc1ccc2c(c1)C(=O)N(C1CCC(=O)NC1=O)C2)c1ccccc1 (some centres unmarked) [Compound 55] | > 2000 | > 10000 | –
19 | 622 | > 300 | Cc1ccc(NC(=O)NCc2ccc3c(c2)C(=O)N(C2CCC(=O)NC2=O)C3)cc1 (centres unmarked) [Compound 21] | > 2000 | > 10000 | –
20 | 253 | > 300 | O=C1CCC(N2Cc3ccc(CNC(=O)NCCCc4ccccc4)cc3C2=O)C(=O)N1 (centres unmarked) [Compound 70] | > 2000 | > 10000 | –
21 | 281 | ≤ 100 | COc1cc(C)c(Cl)cc1NC(=O)NCc1ccc2c(c1)C(=O)N(C1CCC(=O)NC1=O)C2 (centres unmarked) [Compound 76] | – | > 10000 | –
22 | 358 | > 300 | CN1CCC(Oc2cccc(NC(=O)NCc3ccc4c(c3)C(=O)N(C3CCC(=O)NC3=O)C4)c2)CC1 (centres unmarked) [Compound 130] | – | – | –
23 | 248 | > 300 | Cc1ccc(NC(=O)NCc2ccc3c(c2)C(=O)N(C2CCC(=O)NC2=O)C3)c(C)c1Cl (centres unmarked) [Compound 93] | – | – | –
24 | 193 | > 300 | Cc1c(Cl)cc(NC(=O)NCc2ccc3c(c2)C(=O)N(C2CCC(=O)NC2=O)C3)cc1CN1CCC(N2CCOCC2)CC1 (centres unmarked) [Compound 126] | – | – | –

Source: patent publication US20220242846A1, “ISOINDOLINONE COMPOUNDS” (Monte Rosa Therapeutics AG, priority 2019, published 2022)
